From publication PMC8578332 (Scientific Reports, 2021) come the findings set out here.

The assay concerns the target human α7-containing nAChRs (Homo sapiens, UniProt P36544). The assay is described as follows: cell-based. Type of assay: cell-based. The conditions noted are these: SEM.

Each structure is given as a SMILES string. Where a SMILES comes first, the peptide text is derived from it. Bridges are numbered along the chain shown (N, C = ends).

human α7-containing nAChRs, sequence (P36544 23-502 limits assumed): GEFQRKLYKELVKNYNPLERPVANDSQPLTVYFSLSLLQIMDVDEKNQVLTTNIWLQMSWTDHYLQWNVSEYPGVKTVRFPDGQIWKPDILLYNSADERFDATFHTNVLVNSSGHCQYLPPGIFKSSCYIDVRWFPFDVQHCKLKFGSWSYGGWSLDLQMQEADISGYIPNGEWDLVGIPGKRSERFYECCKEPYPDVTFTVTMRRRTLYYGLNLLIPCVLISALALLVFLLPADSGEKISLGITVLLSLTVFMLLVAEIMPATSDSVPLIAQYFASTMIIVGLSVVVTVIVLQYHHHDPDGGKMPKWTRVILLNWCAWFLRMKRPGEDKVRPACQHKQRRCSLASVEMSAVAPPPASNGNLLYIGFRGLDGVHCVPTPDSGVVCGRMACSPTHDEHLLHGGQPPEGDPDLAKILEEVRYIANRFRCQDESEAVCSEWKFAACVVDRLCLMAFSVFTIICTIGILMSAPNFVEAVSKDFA

With `CC[C@H](C)[C@@H]1NC(=O)[C@@H]2CSSC[C@H](NC(=O)[C@@H](NC(=O)CN)CSSC[C@@H](C(N)=O)NC(=O)[C@H](CC(C)C)NC(=O)[C@H](CC(=O)O)NC(=O)[C@@H]3CCCN3C(=O)[C@H](CC(N)=O)NC(=O)[C@H](CC(N)=O)NC(=O)[C@H](CC(C)C)NC1=O)C(=O)N[C@@H](CO)C(=O)N[C@@H](CCCNC(=N)N)C(=O)N1CCC[C@H]1C(=O)N1CCC[C@H]1C(=O)N2` [rTxIA [A10L], reference compound] (H-GCCSRPPCILNNPDLC-NH2; disulfide 2-16, 3-8), the IC50 (commonly the concentration that inhibits the measured activity by half) was found to be 6 ± 0.123 µM. On to `CC[C@H](C)[C@@H]1NC(=O)[C@H](CC(N)=O)NC(=O)[C@@H]2CCCN2C(=O)[C@H](CC(N)=O)NC(=O)[C@H](CC(N)=O)NC(=O)[C@H](C(C)C)NC(=O)[C@H](CCCNC(=N)N)NC(=O)[C@@H]2CSSC[C@H](NC(=O)[C@@H](NC(=O)CNC(=O)[C@@H](N)CO)CSSC[C@@H](C(N)=O)NC1=O)C(=O)N[C@@H](CO)C(=O)N[C@@H](CC(N)=O)C(=O)N1CCC[C@H]1C(=O)N[C@@H](C)C(=O)N2` [rLsIA, reference compound] (H-SGCCSNPACRVNNPNIC-NH2; disulfide 3-17, 4-9), for which it took 41 ± 3.4 µM to reach half-maximal inhibition (IC50). `CC[C@H](C)[C@@H]1NC(=O)[C@H](CC(N)=O)NC(=O)[C@@H]2CCCN2C(=O)[C@H](CC(N)=O)NC(=O)[C@H](CC(N)=O)NC(=O)[C@H](C(C)C)NC(=O)[C@H](CCCNC(=N)N)NC(=O)[C@@H]2CSSC[C@H](NC(=O)CNC(=O)[C@@H](N)CO)C(=O)N[C@@H](CSSC[C@@H](C(N)=O)NC1=O)C(=O)N[C@@H](CO)C(=O)N[C@@H](CC(N)=O)C(=O)N1CCC[C@H]1C(=O)N[C@@H](C)C(=O)N2` [gLsIA, reference compound] (H-SGCCSNPACRVNNPNIC-NH2; disulfide 3-9, 4-17) displayed a half-inhibitory concentration (IC50) of 0.3 ± 0.063 µM. With `CC[C@H](C)[C@@H]1NC(=O)[C@@H]2CSSC[C@H](NC(=O)[C@@H](NC(=O)CN)CSSC[C@@H](C(N)=O)NC(=O)[C@H](CC(C)C)NC(=O)[C@H](CC(=O)O)NC(=O)[C@@H]3CCCN3C(=O)[C@H](CC(N)=O)NC(=O)[C@H](CC(N)=O)NC(=O)[C@H](CC(C)C)NC1=O)C(=O)N[C@@H](CO)C(=O)N[C@@H](C)C(=O)N[C@@H](CCCNC(=N)N)C(=O)N1CCC[C@H]1C(=O)N1CCC[C@H]1C(=O)N2` [rTxIA[∇A5 A10L]] (H-GCCSARPPCILNNPDLC-NH2; disulfide 2-17, 3-9), half-maximal inhibition (IC50) was put at 39 ± 10.3 µM.

As for `CC[C@H](C)[C@@H]1NC(=O)[C@@H]2CSSC[C@H](NC(=O)CN)C(=O)N[C@@H](CSSC[C@@H](C(N)=O)NC(=O)[C@H](CC(C)C)NC(=O)[C@H](CC(=O)O)NC(=O)[C@@H]3CCCN3C(=O)[C@H](CC(N)=O)NC(=O)[C@H](CC(N)=O)NC(=O)[C@H](CC(C)C)NC1=O)C(=O)N[C@@H](CO)C(=O)N[C@@H](CCCNC(=N)N)C(=O)N1CCC[C@H]1C(=O)N1CCC[C@H]1C(=O)N2` [gTxIA [A10L], reference compound] (H-GCCSRPPCILNNPDLC-NH2; disulfide 2-8, 3-16), half-maximal inhibition (IC50) required 0.5 ± 0.036 µM. As to `CC(C)[C@H](NC(=O)[C@@H]1CSSC[C@H](NC(=O)[C@@H](N)CO)C(=O)N[C@H]2CSSC[C@H](NC(=O)[C@H](C)NC(=O)[C@@H]3CCCN3C(=O)[C@H](CC(N)=O)NC(=O)[C@H](CCCNC(=N)N)NC(=O)[C@H](C)NC2=O)C(=O)N[C@@H](CCCNC(=N)N)C(=O)N[C@@H](Cc2c[nH]cn2)C(=O)N[C@@H](CC(N)=O)C(=O)N[C@@H](Cc2c[nH]cn2)C(=O)N2CCC[C@H]2C(=O)N1)C(N)=O` [rAusIA] (H-SCCARNPACRHNHPCV-NH2; disulfide 2-15, 3-9), the IC50 was found to be 26 ± 5 µM. Against the preceding compound, the IC50 is about 52-fold higher. For the compound `CC[C@H](C)[C@@H]1NC(=O)[C@@H]2CSSC[C@H](NC(=O)CN)C(=O)N[C@@H](CSSC[C@@H](C(N)=O)NC(=O)[C@H](CC(C)C)NC(=O)[C@H](CC(=O)O)NC(=O)[C@@H]3CCCN3C(=O)[C@H](CC(N)=O)NC(=O)[C@H](CC(N)=O)NC(=O)[C@H](CC(C)C)NC1=O)C(=O)N[C@@H](CO)C(=O)N[C@@H](C)C(=O)N[C@@H](CCCNC(=N)N)C(=O)N1CCC[C@H]1C(=O)N1CCC[C@H]1C(=O)N2` [gTxIA[∇A5 A10L]] (H-GCCSARPPCILNNPDLC-NH2; disulfide 2-9, 3-17), 18 ± 4 µM corresponded to half-maximal inhibition (IC50). As to `CC(C)[C@H](NC(=O)[C@@H]1CSSC[C@@H]2NC(=O)[C@@H](NC(=O)[C@@H](N)CO)CSSC[C@H](NC(=O)[C@H](C)NC(=O)[C@@H]3CCCN3C(=O)[C@H](CC(N)=O)NC(=O)[C@H](CCCNC(=N)N)NC(=O)[C@H](C)NC2=O)C(=O)N[C@@H](CCCNC(=N)N)C(=O)N[C@@H](Cc2c[nH]cn2)C(=O)N[C@@H](CC(N)=O)C(=O)N[C@@H](Cc2c[nH]cn2)C(=O)N2CCC[C@H]2C(=O)N1)C(N)=O` [gAusIA] (H-SCCARNPACRHNHPCV-NH2; disulfide 2-9, 3-15), the IC50 came out at 47 ± 6.7 µM.
